Assays:
[1] = inhibitory concentration against Con A stimulated thymocytes; type: functional
[2] = Inhibitory concentration against Con A stimulated thymocytes; type: functional

Compound	IC50 [1]	IC50 [2]
CC[C@@H]1NC(=O)[C@H]([C@@H](C)O)N(C)C(=O)[C@H](C(C)C)N(C)C(=O)[C@H](CC(C)C)N(C)C(=O)[C@H](CC(C)C)N(C)C(=O)[C@@H](C)NC(=O)[C@H](C)NC(=O)[C@H](CC(C)C)N(C)C(=O)[C@H](C(C)C)NC(=O)[C@H](CC(C)C)N(C)C(=O)CN(C)C1=O	8 µM	
CC[C@@H]1NC(=O)[C@H](CC)N(C)C(=O)[C@H](C(C)C)N(C)C(=O)[C@H](CC(C)C)N(C)C(=O)[C@H](CC(C)C)N(C)C(=O)[C@@H](C)NC(=O)[C@H](C)NC(=O)[C@H](CC(C)C)N(C)C(=O)[C@H](C(C)C)NC(=O)[C@H](CC(C)C)N(C)C(=O)CN(C)C1=O		15 µM
CCCCC(C)[C@@H](O)[C@H]1C(=O)N[C@@H](CC)C(=O)N(C)CC(=O)N(C)[C@@H](CC(C)C)C(=O)N[C@@H](C(C)C)C(=O)N(C)[C@@H](CC(C)C)C(=O)N[C@@H](C)C(=O)N[C@H](C)C(=O)N(C)[C@@H](CC(C)C)C(=O)N(C)[C@@H](CC(C)C)C(=O)N(C)[C@@H](C(C)C)C(=O)N1C (some centres undefined)		0.01 µM
CC[C@@H]1NC(=O)[C@H]([C@H](O)C(C)C)N(C)C(=O)[C@H](C(C)C)N(C)C(=O)[C@H](CC(C)C)N(C)C(=O)[C@H](CC(C)C)N(C)C(=O)[C@@H](C)NC(=O)[C@H](C)NC(=O)[C@H](CC(C)C)N(C)C(=O)[C@H](C(C)C)NC(=O)[C@H](CC(C)C)N(C)C(=O)CN(C)C1=O		0.6 µM
